Measured values as given in PubChem BioAssay AID330 (DTP/NCI, 2004).
Several values for one entry are separate records, joined by “and”; a condition that tells them apart may be missing. Equal values may be shown once. Toxic doses and inconclusive results are not listed. Peptide text beside a SMILES is read from it.

Test system: P388 leukemia ip, CD2F1 mice, survival T/C
Experiment: NCI In Vivo Anticancer Drug Screen. Data for tumor model P388 Leukemia (intraperitoneal) in CD2F1 (CDF1) mice
Conditions: endpoint: median survival time, higher = longer survival
Summary of the method: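 Mice carrying the transplanted tumor received test compound or vehicle. Survival was recorded in each group, and the value is the treated-group measurement divided by that of the vehicle-treated control group.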

[1] = dose: 50.0 mg/kg/injection, schedule: Q01DX005 (ip), vehicle: saline with Tween-80
[2] = dose: 100.0 mg/kg/injection, schedule: Q01DX005 (ip), vehicle: saline with Tween-80
[3] = dose: 50.0 mg/kg/injection, schedule: Q01DX005 (ip), vehicle: Klucel (hydroxypropylcellulose) (HPC)
[4] = dose: 100.0 mg/kg/injection, schedule: Q01DX005 (ip), vehicle: Klucel (hydroxypropylcellulose) (HPC)
[5] = dose: 200.0 mg/kg/injection, schedule: Q01DX005 (ip), vehicle: Klucel (hydroxypropylcellulose) (HPC)
[6] = dose: 200.0 mg/kg/injection, schedule: Q01DX005 (ip), vehicle: saline with Tween-80
[7] = dose: 50.0 mg/kg/injection, schedule: Q01DX009 (ip), vehicle: Klucel (hydroxypropylcellulose) (HPC)
[8] = dose: 100.0 mg/kg/injection, schedule: Q01DX009 (ip), vehicle: Klucel (hydroxypropylcellulose) (HPC)
[9] = dose: 200.0 mg/kg/injection, schedule: Q01DX009 (ip), vehicle: Klucel (hydroxypropylcellulose) (HPC)
[10] = dose: 50.0 mg/kg/injection, schedule: Q01DX009 (ip), vehicle: saline with Tween-80
[11] = dose: 50.0 mg/kg/injection, schedule: Q01DX009 (ip), vehicle: saline
[12] = dose: 200.0 mg/kg/injection, schedule: Q01DX001 (ip), vehicle: saline with Tween-80
[13] = dose: 400.0 mg/kg/injection, schedule: Q01DX001 (ip), vehicle: saline with Tween-80
[14] = dose: 50.0 mg/kg/injection, schedule: Q01DX001 (ip), vehicle: Klucel (hydroxypropylcellulose) (HPC)
[15] = dose: 200.0 mg/kg/injection, schedule: Q01DX001 (ip), vehicle: Klucel (hydroxypropylcellulose) (HPC)
[16] = dose: 100.0 mg/kg/injection, schedule: Q01DX009 (ip), vehicle: saline
[17] = dose: 200.0 mg/kg/injection, schedule: Q01DX009 (ip), vehicle: saline
[18] = dose: 60.0 mg/kg/injection, schedule: Q01DX005 (ip), vehicle: saline with Tween-80
[19] = dose: 120.0 mg/kg/injection, schedule: Q01DX005 (ip), vehicle: saline with Tween-80

CCN(CC)c1nc(N(CC)CC)c2[nH]cnc2n1
T/C (dose: 12.5 mg/kg/injection, schedule: Q01DX005 (ip), vehicle: saline with Tween-80): 102 % of control | T/C (dose: 25.0 mg/kg/injection, schedule: Q01DX005 (ip), vehicle: saline with Tween-80): 100 % of control | T/C [1]: 98 % of control and 105 % of control | T/C [2]: 105 % of control

O=S(Cl)C(Cl)=C(Cl)Cl (stereo not given)
T/C [3]: 106 % of control | T/C [4]: 104 % of control | T/C [5]: 103 % of control

CC1(C)N=C(N)N=C(N)N1c1cccc(CC(=O)Nc2ccc(S(=O)(=O)F)cc2)c1
T/C (dose: 200.0 mg/kg/injection, schedule: Q04DX003 (ip), vehicle: saline with Tween-80): 122 % of control

CC(C)=C1C2C=CC1C1C2C(=O)C2OC2(CO)C1O (stereo not given)
T/C [1]: 100 % of control | T/C [2]: 100 % of control | T/C [6]: 101 % of control

O=C1NC(=O)N(c2cccc(Cl)c2)C1=O
T/C [7]: 106 % of control | T/C [8]: 109 % of control | T/C [9]: 102 % of control

C/C=C(\C(=O)O)S(=O)(=O)O.[Pb]
T/C (dose: 25.0 mg/kg/injection, schedule: Q01DX009 (ip), vehicle: saline with Tween-80): 100 % of control | T/C [10]: 90 % of control

CC1=C/C(=N\NS(=O)(=O)c2ccc([N+](=O)[O-])cc2)CC(C)(C)C1
T/C [8]: 87 % of control | T/C [9]: 98 % of control | T/C (dose: 400.0 mg/kg/injection, schedule: Q01DX009 (ip), vehicle: Klucel (hydroxypropylcellulose) (HPC)): 100 % of control

NC(c1cccc([N+](=O)[O-])c1)S(=O)(=O)O (stereo not given)
T/C (dose: 100.0 mg/kg/injection, schedule: Q04DX002 (ip), vehicle: saline): 99 % of control | T/C (dose: 200.0 mg/kg/injection, schedule: Q04DX002 (ip), vehicle: saline): 105 % of control | T/C (dose: 400.0 mg/kg/injection, schedule: Q04DX002 (ip), vehicle: saline): 105 % of control

O=NNc1ccc(Sc2ccc(NN=O)cn2)nc1
T/C (dose: 3.12 mg/kg/injection, schedule: Q01DX009 (ip), vehicle: saline): 100 % of control | T/C (dose: 6.25 mg/kg/injection, schedule: Q01DX009 (ip), vehicle: saline): 107 % of control | T/C (dose: 12.5 mg/kg/injection, schedule: Q01DX009 (ip), vehicle: saline): 114 % of control | T/C [11]: 122 % of control

Cc1ccc(N=Cc2cccs2)c(Br)c1
T/C [7]: 100 % of control | T/C [8]: 118 % of control | T/C [9]: 100 % of control

COc1cccc(N=C(C)C2C(=O)c3ccccc3C2=O)c1
T/C [1]: 109 % of control | T/C [2]: 100 % of control | T/C [6]: 95 % of control

Cn1c(=O)ccc2c(=O)c3cc(Br)ccc3oc21
T/C (dose: 100.0 mg/kg/injection, schedule: Q01DX001 (ip), vehicle: saline with Tween-80): 98 % of control | T/C [12]: 107 % of control | T/C [13]: 96 % of control

CCCC[S][Sn]([CH2]CCC)([CH2]CCC)[S]CCCC
T/C (dose: 0.75 mg/kg/injection, schedule: Q01DX009 (ip), vehicle: saline with Tween-80): 121 % of control | T/C (dose: 3.0 mg/kg/injection, schedule: Q01DX009 (ip), vehicle: saline with Tween-80): 152 % of control

Cc1sc2ccc3ccccc3c2[n+]1C
T/C (dose: 15.0 mg/kg/injection, schedule: Q01DX005 (ip), vehicle: saline): 100 % of control and 106 % of control and 95 % of control | T/C (dose: 30.0 mg/kg/injection, schedule: Q01DX005 (ip), vehicle: saline): 104 % of control and 108 % of control and 118 % of control | T/C (dose: 60.0 mg/kg/injection, schedule: Q01DX005 (ip), vehicle: saline): 116 % of control | T/C (dose: 120.0 mg/kg/injection, schedule: Q01DX005 (ip), vehicle: saline): 91 % of control and 114 % of control

Cc1[nH]c2cc(Br)c(Br)cc2c1/C=N/NC(N)=S
T/C [14]: 100 % of control | T/C (dose: 100.0 mg/kg/injection, schedule: Q01DX001 (ip), vehicle: Klucel (hydroxypropylcellulose) (HPC)): 96 % of control | T/C [15]: 92 % of control

CC(C)CC(NC(=O)C(CC(=O)O)NC(=O)C(N)CO)C(=O)N1CCCC1C(=O)NC(CCC(N)=O)C(=O)NC(C(=O)O)C(C)O (stereo not given) (H-SDLPQT-OH; configuration not given here)
T/C (dose: 9.0 mg/kg/injection, schedule: Q01DX005 (ip), vehicle: water): 110 % of control | T/C (dose: 18.0 mg/kg/injection, schedule: Q01DX005 (ip), vehicle: water): 107 % of control | T/C (dose: 36.0 mg/kg/injection, schedule: Q01DX005 (ip), vehicle: water): 107 % of control | T/C (dose: 72.0 mg/kg/injection, schedule: Q01DX005 (ip), vehicle: water): 107 % of control | T/C (dose: 144.0 mg/kg/injection, schedule: Q01DX005 (ip), vehicle: water): 100 % of control

CC1OC(OC2C(Oc3cc(O)c4c(=O)cc(-c5ccc(OC6OC(CO)C(O)C(O)C6OC6OC(C)C(O)C(O)C6O)c(O)c5)oc4c3)OC(CO)C(O)C2O)C(O)C(O)C1O (stereo not given)
T/C (dose: 3.0 mg/kg/injection, schedule: Q01DX009 (ip), vehicle: Klucel (hydroxypropylcellulose) (HPC)): 106 % of control | T/C (dose: 6.0 mg/kg/injection, schedule: Q01DX009 (ip), vehicle: Klucel (hydroxypropylcellulose) (HPC)): 95 % of control | T/C (dose: 12.0 mg/kg/injection, schedule: Q01DX009 (ip), vehicle: Klucel (hydroxypropylcellulose) (HPC)): 93 % of control | T/C (dose: 24.0 mg/kg/injection, schedule: Q01DX009 (ip), vehicle: Klucel (hydroxypropylcellulose) (HPC)): 95 % of control

O=c1c2cc(OCO)ccc2[nH]c2cc3c(=O)c4cc(OCO)ccc4[nH]c3cc12
T/C [11]: 102 % of control | T/C [16]: 99 % of control | T/C [17]: 93 % of control

CCCCCCCCN1CCCN(/N=C/c2c3c(O)c4c(O)c(C)c5c(c4c2O)C(=O)C(C)(O/C=C/C(OC)C(C)C(OC(C)=O)C(C)C(O)C(C)C(O)C(C)/C=C/C=C(C)C(=O)N3)O5)CC1 (stereo not given)
T/C [10]: 97 % of control | T/C (dose: 100.0 mg/kg/injection, schedule: Q01DX009 (ip), vehicle: saline with Tween-80): 100 % of control | T/C (dose: 200.0 mg/kg/injection, schedule: Q01DX009 (ip), vehicle: saline with Tween-80): 91 % of control

CCOP(=O)(OCC)Oc1c(OC)cc(C2OCCO2)cc1OC
T/C [11]: 103 % of control | T/C [16]: 103 % of control | T/C [17]: 117 % of control

O=C1OCCCCCCOC(=O)c2ccccc2SSc2ccccc21
T/C (dose: 12.5 mg/kg/injection, schedule: Q01DX001 (ip), vehicle: saline with Tween-80): 101 % of control | T/C (dose: 25.0 mg/kg/injection, schedule: Q01DX001 (ip), vehicle: saline with Tween-80): 94 % of control | T/C (dose: 50.0 mg/kg/injection, schedule: Q01DX001 (ip), vehicle: saline with Tween-80): 94 % of control | T/C [12]: 88 % of control | T/C [13]: 90 % of control

COc1ccc(OC)c(NC(=O)CCCC(=O)C(C#N)c2ccc(CC#N)cc2)c1 (stereo not given)
T/C [18]: 98 % of control | T/C [19]: 98 % of control | T/C (dose: 240.0 mg/kg/injection, schedule: Q01DX005 (ip), vehicle: saline with Tween-80): 103 % of control

CC(=O)Oc1ccccc1C(=O)OCC(=O)c1ccc2c(c1)Nc1ccccc1S2
T/C (dose: 1.56 mg/kg/injection, schedule: Q01DX001 (ip), vehicle: Klucel (hydroxypropylcellulose) (HPC)): 93 % of control | T/C (dose: 3.13 mg/kg/injection, schedule: Q01DX001 (ip), vehicle: Klucel (hydroxypropylcellulose) (HPC)): 95 % of control | T/C (dose: 6.25 mg/kg/injection, schedule: Q01DX001 (ip), vehicle: Klucel (hydroxypropylcellulose) (HPC)): 90 % of control | T/C [14]: 87 % of control | T/C [15]: 94 % of control

Cn1c(CC(O)c2nc3ccccc3n2C)nc2ccccc21 (stereo not given)
T/C [7]: 98 % of control | T/C [11]: 114 % of control | T/C [8]: 105 % of control | T/C [16]: 112 % of control | T/C [9]: 98 % of control | T/C [17]: 107 % of control

O=C(O)c1cccc(SS(=O)(=O)c2cccc(C(=O)O)c2)c1
T/C [3]: 109 % of control | T/C [4]: 112 % of control | T/C [5]: 107 % of control

CC(=O)Nc1ccc(CC#N)cc1
T/C (dose: 5.0 mg/kg/injection, schedule: Q01DX009 (ip), vehicle: saline sonified): 100 % of control | T/C (dose: 10.0 mg/kg/injection, schedule: Q01DX009 (ip), vehicle: saline sonified): 100 % of control | T/C (dose: 20.0 mg/kg/injection, schedule: Q01DX009 (ip), vehicle: saline sonified): 113 % of control
